Here are results for 35 compounds from patent US8278032B2, “Transporter protein in mammal and utilization of the same” (priority 2005, dated 2012).

In experiment [1] the target is T1, hMATE1 (Homo sapiens, UniProt Q96FL8).
T1 sequence (Q96FL8 1-570): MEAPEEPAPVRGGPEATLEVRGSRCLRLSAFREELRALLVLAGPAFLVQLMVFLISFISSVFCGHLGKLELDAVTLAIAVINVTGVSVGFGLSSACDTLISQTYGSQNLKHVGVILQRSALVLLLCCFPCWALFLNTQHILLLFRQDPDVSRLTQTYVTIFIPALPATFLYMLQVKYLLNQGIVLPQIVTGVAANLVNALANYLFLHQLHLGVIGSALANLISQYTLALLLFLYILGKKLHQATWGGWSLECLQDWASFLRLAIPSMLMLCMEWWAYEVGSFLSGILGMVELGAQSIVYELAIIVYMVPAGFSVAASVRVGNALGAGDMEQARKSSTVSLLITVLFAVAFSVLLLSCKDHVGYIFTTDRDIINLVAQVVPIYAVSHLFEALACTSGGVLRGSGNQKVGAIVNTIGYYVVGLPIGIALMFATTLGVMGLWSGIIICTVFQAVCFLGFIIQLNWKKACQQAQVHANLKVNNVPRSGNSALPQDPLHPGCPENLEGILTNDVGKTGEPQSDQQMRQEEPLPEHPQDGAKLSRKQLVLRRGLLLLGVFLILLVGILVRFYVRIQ
Briefly: Inhibition of RI-labeled TEA uptake in HEK293 cells expressing hMATE1. Conditions: for TEA uptake activity percent taking the level with addition of no compound as 100% (% ± S.D.): 50 μM RI-labeled TEA, pH 8.0, HEK293 cells expressing hMATE1; for Effect on TEA uptake activity (in words): valinomycin 5 μM with 65 mM potassium chloride, nigericin 5 μM with potassium chloride, SF6847 10 μM; for Inhibition of TEA uptake activity (in words, summary of Table 1): MATE1 expressing HEK293 cells, 50 μM TEA, pH 8.0.

Experiment [2] concerns the target T2, mMATE1 (Mus musculus, UniProt Q8K0H1).
T2 construct: expressed in transfected cells; host or cells: HEK293
T2 sequence (Q8K0H1 with tags, fused parts or gaps): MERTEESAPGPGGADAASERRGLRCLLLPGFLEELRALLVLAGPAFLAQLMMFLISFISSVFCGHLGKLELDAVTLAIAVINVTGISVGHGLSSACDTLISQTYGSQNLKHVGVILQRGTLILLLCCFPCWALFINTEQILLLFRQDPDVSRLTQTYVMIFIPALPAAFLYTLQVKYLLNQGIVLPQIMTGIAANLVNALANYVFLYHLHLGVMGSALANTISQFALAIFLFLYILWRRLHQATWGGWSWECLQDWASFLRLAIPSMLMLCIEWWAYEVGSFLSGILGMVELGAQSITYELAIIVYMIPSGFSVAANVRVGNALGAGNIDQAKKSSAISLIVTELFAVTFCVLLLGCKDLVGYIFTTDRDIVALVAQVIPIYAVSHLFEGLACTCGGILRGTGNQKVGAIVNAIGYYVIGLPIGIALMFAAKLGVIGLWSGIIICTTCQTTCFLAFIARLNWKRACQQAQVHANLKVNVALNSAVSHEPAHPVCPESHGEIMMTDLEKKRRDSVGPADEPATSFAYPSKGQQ
Briefly: Inhibition of RI-labeled TEA uptake in HEK293 cells expressing mMATE1.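 For all read-outs here: transfected HEK293 cells held 5 min at 37 °C before tracer addition, uptake read as radioactivity retained on a 0.45-µm membrane filter, mean ± SD of three to nine experiments.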 The class given is cell-based. The conditions noted are these: for remaining activity at 5000 µM: compound 5 mM, 50 μM RI-labeled TEA, pH 8.0, HEK293 cells expressing mMATE1, read-out: TEA uptake activity percent taking the level with addition of no compound as 100% (% ± S.D.).

Setting [3] is: HEK293 cells expressing human MATE1, FIG. 9(e).

On to `NC12CC3CC(CC(C3)C1)C2` [Amantadine], for which the “TEA uptake activity percent taking the level with addition of no compound as 100% (% ± S.D.)” value in experiment [1] (compound 0.1 mM) was found to be 75.5 ± 9.8%.
Turning to `C[C@]12CCC(=O)C=C1CC[C@@H]1[C@@H]2CC[C@]2(C)C(=O)CC[C@@H]12` [Androstenedione], in experiment [2] (HEK293, pH 8, read-out: TEA uptake activity percent taking the level with addition of no compound as 100% (% ± S.D.)), the remaining activity at 100 µM stood at 8.6 ± 1.7%. Moreover, the “TEA uptake activity percent taking the level with addition of no compound as 100% (% ± S.D.)” value in experiment [1] (compound 0.1 mM) turned out to be 36.6 ± 0.9%.
As to `CN1[C@@H]2CC[C@H]1C[C@@H](OC(=O)C(CO)c1ccccc1)C2` (stereo partly shown) [Atropine], in experiment [1] (compound 0.1 mM), the “TEA uptake activity percent taking the level with addition of no compound as 100% (% ± S.D.)” value is recorded as 74.6 ± 5.5%.
Take `COc1ccc2cc3[n+](cc2c1OC)CCc1cc2c(cc1-3)OCO2` [Berberin]: the “TEA uptake activity percent taking the level with addition of no compound as 100% (% ± S.D.)” value in experiment [1] (compound 0.001 mM) was found to be 69.2 ± 2.1%; in experiment [1] (compound 0.01 mM), 20.4 ± 2.4%; in experiment [1] (compound 0.1 mM), 4.2 ± 0.9%.
Turning to `CC(C)(c1ccc(O)cc1)c1ccc(O)cc1` [Bisphenol A], the “TEA uptake activity percent taking the level with addition of no compound as 100% (% ± S.D.)” value in experiment [1] (compound 0.01 mM) was found to be 113.9 ± 2.1%.
In the case of `C[N+](C)(C)CC(O)CC(=O)[O-]` (stereo not shown) [Carnitine], in experiment [2], the remaining activity at 5000 µM was determined as 71.2 ± 6.1%. Further, the “TEA uptake activity percent taking the level with addition of no compound as 100% (% ± S.D.)” value in experiment [1] (compound 5 mM) is listed as 104.2 ± 6.4%.
As for `CN(C)CCCN1c2ccccc2Sc2ccc(Cl)cc21` [Chlorpromazine], the “TEA uptake activity percent taking the level with addition of no compound as 100% (% ± S.D.)” value in experiment [1] (compound 0.1 mM) is 12.2 ± 3.6%.
On to `C[N+](C)(C)CCO` [Choline], for which the remaining activity at 5000 µM in experiment [2] came out at 62 ± 8.8%. Besides, the “TEA uptake activity percent taking the level with addition of no compound as 100% (% ± S.D.)” value in experiment [1] (compound 5 mM) is given as 62.7 ± 4.1%.
In the case of `N.N.[Cl][Pt][Cl]` [Cisplatin], the “TEA uptake activity percent taking the level with addition of no compound as 100% (% ± S.D.)” value in experiment [1] (compound 1 mM) worked out at 35.6 ± 6.0%.
Consider `CC/C(=C(/CC)c1ccc(O)cc1)c1ccc(O)cc1` [Diethylstilbestrol], for which, in experiment [1] (compound 0.1 mM), the “TEA uptake activity percent taking the level with addition of no compound as 100% (% ± S.D.)” value was found to be 94.9 ± 7.8%.
Consider `C[C@H]1O[C@@H](O[C@H]2[C@@H](O)C[C@H](O[C@H]3[C@@H](O)C[C@H](O[C@H]4CC[C@@]5(C)[C@H](CC[C@@H]6[C@@H]5C[C@@H](O)[C@]5(C)[C@@H](C7=CC(=O)OC7)CC[C@]65O)C4)O[C@@H]3C)O[C@@H]2C)C[C@H](O)[C@@H]1O` [Digoxin], for which the “TEA uptake activity percent taking the level with addition of no compound as 100% (% ± S.D.)” value in experiment [1] (compound 0.001 mM) was determined as 102.5 ± 7.3%.
As to `O=C(CCCN1CC=C(n2c(=O)[nH]c3ccccc32)CC1)c1ccc(F)cc1` [Droperidol], in experiment [1] (compound 0.001 mM), the “TEA uptake activity percent taking the level with addition of no compound as 100% (% ± S.D.)” value is on record as 74.1 ± 14.7%.
On to `CN(C)C(=N)N=C(N)N` [Metformin], for which the “TEA uptake activity percent taking the level with addition of no compound as 100% (% ± S.D.)” value in experiment [1] (compound 0.1 mM) came to 120.5 ± 9.4%.
On to `C[C@@H]1O[C@@H](O[C@H]2C[C@@H](O)[C@]3(CO)[C@H]4[C@H](O)C[C@]5(C)[C@@H](C6=CC(=O)OC6)CC[C@]5(O)[C@@H]4CC[C@]3(O)C2)[C@H](O)[C@H](O)[C@H]1O` [Ouabain], for which the “TEA uptake activity percent taking the level with addition of no compound as 100% (% ± S.D.)” value in experiment [1] (compound 0.01 mM) is on record as 115.9 ± 6.6%.
In the case of `COc1ccc(Cc2nccc3cc(OC)c(OC)cc23)cc1OC` [Papaverine], in experiment [1] (compound 0.01 mM), the “TEA uptake activity percent taking the level with addition of no compound as 100% (% ± S.D.)” value was 26.8 ± 2.7%.
Take `C[n+]1ccc(-c2cc[n+](C)cc2)cc1` [Paraquat]: the “TEA uptake activity percent taking the level with addition of no compound as 100% (% ± S.D.)” value in experiment [1] (compound 1 mM) was 57.2 ± 6.8%.
With `CC[C@@H]1C(=O)OC[C@@H]1Cc1cncn1C` [Pilocarpine], the “TEA uptake activity percent taking the level with addition of no compound as 100% (% ± S.D.)” value in experiment [1] (compound 0.1 mM) stood at 96.1 ± 0.4%.
The same measure, in the same setting: the figure for `CC(C)NCC(O)COc1cccc2ccccc12` (stereo not shown) [Propranolol] is 30.1 ± 3.9%.
With `CCc1nc(N)nc(N)c1-c1ccc(Cl)cc1` [Pyrimethamine], the “TEA uptake activity percent taking the level with addition of no compound as 100% (% ± S.D.)” value was determined as 45.2 ± 3.5% in experiment [1] (compound 0.00001 mM) and 19.8 ± 1.6% in experiment [1] (compound 0.0001 mM).
On to `CCN(CC)CCCC(C)Nc1c2ccc(Cl)cc2nc2ccc(OC)cc12` (stereo not shown) [Quinacrine], for which the “TEA uptake activity percent taking the level with addition of no compound as 100% (% ± S.D.)” value in experiment [1] (compound 0.01 mM) came out at 41.6 ± 8.2%.
On the same count and under the same terms, the figure for `C=C[C@H]1C[N@@]2CC[C@H]1C[C@H]2[C@H](O)c1ccnc2ccc(OC)cc12` [Quinine] is 30.4 ± 2.8%.
With `COC(=O)[C@H]1[C@H]2C[C@@H]3c4[nH]c5cc(OC)ccc5c4CCN3C[C@H]2C[C@@H](OC(=O)c2cc(OC)c(OC)c(OC)c2)[C@@H]1OC` [Reserpine], the “TEA uptake activity percent taking the level with addition of no compound as 100% (% ± S.D.)” value is 86.3 ± 3.5% in experiment [1] (compound 0.001 mM) and 22.8 ± 0.9% in experiment [1] (compound 0.01 mM).
As to `C[C@@H]1O[C@@H](OC[C@H]2O[C@@H](Oc3c(-c4ccc(O)c(O)c4)oc4cc(O)cc(O)c4c3=O)[C@H](O)[C@@H](O)[C@@H]2O)[C@H](O)[C@H](O)[C@H]1O` [Rutin], the “TEA uptake activity percent taking the level with addition of no compound as 100% (% ± S.D.)” value in experiment [1] (compound 0.1 mM) was 71.8 ± 3.6%.
On to `CC(C)(C)c1cc(C=C(C#N)C#N)cc(C(C)(C)C)c1O` [SF6847], for which the “Effect on TEA uptake activity (in words)” value in experiment [1] (setting [3]) was “greatly decreased”.
With `NCCc1c[nH]c2ccc(O)cc12` [Serotonin], in experiment [1] (compound 0.1 mM), the “TEA uptake activity percent taking the level with addition of no compound as 100% (% ± S.D.)” value worked out at 67.5 ± 8.0%.
As for `NCCCCNCCCN` [Spermidine], the “TEA uptake activity percent taking the level with addition of no compound as 100% (% ± S.D.)” value in experiment [1] (compound 0.05 mM) was found to be 97.0 ± 11.4%.
`Cc1ncc(C[n+]2csc(CCO)c2C)c(N)n1` [Thiamine]: the entries for the “TEA uptake activity percent taking the level with addition of no compound as 100% (% ± S.D.)” value in experiment [1] (compound 0.1 mM) and in experiment [1] (compound 1 mM) were 55.7 ± 7.0% and 31.1 ± 3.9%, respectively.
Consider `N[C@@H](Cc1cc(I)c(Oc2cc(I)c(O)c(I)c2)c(I)c1)C(=O)O` [Thyroxine], for which the “TEA uptake activity percent taking the level with addition of no compound as 100% (% ± S.D.)” value in experiment [1] (compound 0.1 mM) is 113.0 ± 4.5%.
Take `Cl.N` [ammonium chloride]: in experiment [1] (HEK293 cells expressing human MATE1, FIG. 9(e), concentration not given), the “TEA uptake activity inhibited by” value came out at 60%.
As for `C[C@]12CC[C@@H](O)C[C@@H]1CC[C@@H]1[C@@H]2CC[C@]2(C)C(=O)CC[C@@H]12` [androsterone], the “Inhibition of TEA uptake activity (in words, summary of Table 1)” value in experiment [1] was “inhibited”.
As to `CO[C@@H]1C[C@@H](C[C@H]2CC[C@H](C)[C@H]([C@@H](C)C(=O)O)O2)O[C@]2(O[C@](C)([C@H]3CC[C@@](C)([C@@H]4O[C@@H]([C@H]5O[C@@](O)(CO)[C@H](C)C[C@@H]5C)C[C@@H]4C)O3)C[C@H]2C)[C@@H]1C` [nigericin], the “Effect on TEA uptake activity (in words)” value in experiment [1] (setting [3]) is reported as “greatly decreased”.
Regarding `CC(C)[C@@H]1NC(=O)[C@H](C)OC(=O)[C@@H](C(C)C)NC(=O)[C@@H](C(C)C)OC(=O)[C@H](C(C)C)NC(=O)[C@H](C)OC(=O)[C@@H](C(C)C)NC(=O)[C@@H](C(C)C)OC(=O)[C@H](C(C)C)NC(=O)[C@H](C)OC(=O)[C@@H](C(C)C)NC(=O)[C@@H](C(C)C)OC1=O` [valinomycin], the “Effect on TEA uptake activity (in words)” value in experiment [1] (setting [3]) is reported as “not affected”.
Consider Catechin, for which the “TEA uptake activity percent taking the level with addition of no compound as 100% (% ± S.D.)” value in experiment [1] (compound 0.1 mM) worked out at 104.0 ± 4.4%.
The same measure, in the same setting: the figure for Tocopherol is 78.8 ± 9.6%.
As to para-aminobutyric acid, in experiment [1], the “Inhibition of TEA uptake activity (in words, summary of Table 1)” value is “not inhibited”.
